IC50 data for one compound are collected here from patent publication US12054451B1, “Water soluble platinum (II) amino acid schiff base as an antitumor drug” (KING FAISAL UNIVERSITY, priority 2024, dated 2024).

The experiment has as its system HepG-2 (Hepatocellular carcinoma). The experiment can be described thus: SRB (sulforhodamine-B-stain) anticancer assay, HepG-2. It counts as cell-based. The note with it: Homo sapiens, HepG2, HepG-2 cells, 48 hours at 37° C., absorbance 564 nm. As for the experimental part: Investigation for the bio-reactivity of PtL, as an antitumor candidate, was achieved versus well documented human cancer cell lines, as three cancers entitled HepG2, MCF-7, and HCT-116, using the simplest tool SRB (sulforhodamine-B-stain). In particular, the most popular anticancer referenced drug (vinblastine) was used in the anticancer assay (the inhibited action of the cancer cells) to compare its bio-reactivity versus that one of PtL. The antitumor reactivity of PtL was evaluated by IC50 concentrations (half effected concentration in μM) for inhibiting the growth of the tumor and normal cell lines of human in which IC50 concentrations were obtained from Eq. 1, below.
With HepG-2 (Hepatocellular carcinoma), HCT-116 (colon carcinoma), and MCF7 (breast adenocarcinoma), as human cancer cell lines, the antitumor potential of PtL was studied against their growth by applying a spectrometric tool. Using SRB (sulforhodamine-B-stain) was essential in the spectrometric studies at a specific wavelength (564 nm, the optimized absorption wavelength). Recording the corresponded absorbance (A) at 564 nm was accomplished using a UV/Vis. spectrophotometer, UV-1800 mode Shimadzu with a mono-cell holder. […]

For orientation: IC50 means the concentration at which inhibition is half-maximal. Higher therefore signals lower potency. Consider `CC[C@]1(O)C[C@@H]2CN(CCc3c([nH]c4ccccc34)[C@@](C(=O)OC)(c3cc4c(cc3OC)N(C)[C@H]3[C@@](O)(C(=O)OC)[C@H](OC(C)=O)[C@]5(CC)C=CCN6CC[C@]43[C@@H]65)C2)C1` [Vinblastine, vinblastine], for which the IC50 came out at 7.5 ± 0.1 µM.
